From ChEMBL document CHEMBL4396906, “Design, synthesis and activity of novel 2,6-disubstituted purine derivatives, potential small molecule inhibitors of signal transducer and activator of transcription 3” (Eur J Med Chem, 2019)
Active and inactive are the calls of the source. No cut-off for these calls is given here.

Experiments:
[1] = biological target: Epidermal growth factor receptor (Homo sapiens) (UniProt P00533); experiment: Inhibition of EGFR in human MDA-MB-231 cells assessed as decrease in EGF-induced EGFR phosphorylation at 1 to 10 uM preincubated for 12 hrs followed by EGF-stimulation and measured after 10 mins by Western blot analysis; format: cell-based
[2] = biological target: Fibroblast growth factor receptor 2 (Homo sapiens) (UniProt P21802); experiment: Inhibition of FGFR2 (unknown origin) at 10 uM using peptide as substrate incubated for 10 mins by caliper assay relative to control
MDA-MB-231 [3] = experiment: Effect on total ERK protein level in EGF-induced human MDA-MB-231 cells at 1 to 10 uM preincubated for 12 hrs followed by EGF-stimulation and measured after 10 mins by Western blot analysis; format: ADME, cell-based; conditions: mda-mb-231, 10 min
MDA-MB-231 [4] = experiment: Induction of apoptosis in human MDA-MB-231 cells after 24 hrs by Annexin V-FITC/propidium iodide staining-based flow cytometric analysis; format: functional, cell-based
MDA-MB-231 [5] = experiment: Antimigratory activity in human MDA-MB-231 cells assessed as reduction in scratch healing at 1000 nM after 48 hrs by scratch wound healing based phase contrast microscopic analysis relative to control; format: functional; design: scale not given: the % may be the effect or the level left
MDA-MB-231 [6] = experiment: Antitumor activity against human MDA-MB-231 cells xenografted in Balb/c mouse assessed as tumour growth inhibition at 30 mg/kg, ip and measured every other day by caliper method relative to control; format: functional; conditions: MDA-MB-231, ip
MDA-MB-231 [7] = experiment: Induction of apoptosis in human MDA-MB-231 cells assessed as viable cells at 10 uM after 24 hrs by Annexin V-FITC/propidium iodide staining-based flow cytometric analysis (reference value: 93.9 %); format: functional; conditions: MDA-MB-231, 24 h, read-out: Activity
[8] = test system: Epidermal growth factor receptor (Homo sapiens), P00533 [UNDEFINED MUTATION]; experiment: Inhibition of EGFR 746-750 deletion mutant (unknown origin) at 10 uM using peptide as substrate incubated for 10 mins by caliper assay relative to control
MDA-MB-231 [9] = experiment: Antimigratory activity in human MDA-MB-231 cells assessed as reduction in scratch healing at 100 to 1000 nM after 48 hrs by scratch wound healing based phase contrast microscopic analysis; format: functional, cell-based

Epidermal growth factor receptor (Homo sapiens), P00533 [UNDEFINED MUTATION], sequence (P00533 whole entry, looked up, stated change not applied): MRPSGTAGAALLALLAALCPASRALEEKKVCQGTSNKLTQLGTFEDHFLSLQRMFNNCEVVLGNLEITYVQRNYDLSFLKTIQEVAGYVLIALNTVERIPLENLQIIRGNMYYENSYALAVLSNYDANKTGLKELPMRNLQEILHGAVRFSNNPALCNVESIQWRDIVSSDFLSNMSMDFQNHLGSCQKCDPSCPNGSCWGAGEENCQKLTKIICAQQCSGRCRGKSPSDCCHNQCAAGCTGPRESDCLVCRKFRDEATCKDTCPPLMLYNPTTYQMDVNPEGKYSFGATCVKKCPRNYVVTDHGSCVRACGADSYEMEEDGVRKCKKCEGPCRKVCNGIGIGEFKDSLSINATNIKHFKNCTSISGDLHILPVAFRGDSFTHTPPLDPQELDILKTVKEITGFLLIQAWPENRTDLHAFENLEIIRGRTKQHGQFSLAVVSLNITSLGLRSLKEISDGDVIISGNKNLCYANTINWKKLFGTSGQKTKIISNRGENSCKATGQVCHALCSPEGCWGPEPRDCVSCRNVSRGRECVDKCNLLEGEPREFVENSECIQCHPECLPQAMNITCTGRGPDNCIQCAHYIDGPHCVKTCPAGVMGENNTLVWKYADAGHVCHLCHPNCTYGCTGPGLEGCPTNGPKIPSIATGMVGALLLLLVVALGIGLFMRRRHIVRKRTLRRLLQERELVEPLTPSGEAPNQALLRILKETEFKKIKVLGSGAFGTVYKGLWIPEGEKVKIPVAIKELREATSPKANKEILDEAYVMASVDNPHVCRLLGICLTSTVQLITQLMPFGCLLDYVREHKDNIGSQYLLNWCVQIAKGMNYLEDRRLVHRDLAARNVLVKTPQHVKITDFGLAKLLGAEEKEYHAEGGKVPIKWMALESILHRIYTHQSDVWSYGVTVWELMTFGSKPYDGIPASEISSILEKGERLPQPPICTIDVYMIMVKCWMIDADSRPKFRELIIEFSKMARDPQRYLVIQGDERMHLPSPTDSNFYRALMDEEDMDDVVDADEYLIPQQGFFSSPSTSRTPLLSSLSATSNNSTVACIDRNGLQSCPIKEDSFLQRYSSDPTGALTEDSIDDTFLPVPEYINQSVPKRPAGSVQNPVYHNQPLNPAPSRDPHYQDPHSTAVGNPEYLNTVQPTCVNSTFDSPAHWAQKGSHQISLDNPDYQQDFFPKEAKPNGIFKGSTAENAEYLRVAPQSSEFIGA
Epidermal growth factor receptor (Homo sapiens), sequence (P00533 whole entry): as the sequence (P00533 whole entry, looked up, stated change not applied) above
Fibroblast growth factor receptor 2 (Homo sapiens), sequence (P21802 22-821 limits assumed): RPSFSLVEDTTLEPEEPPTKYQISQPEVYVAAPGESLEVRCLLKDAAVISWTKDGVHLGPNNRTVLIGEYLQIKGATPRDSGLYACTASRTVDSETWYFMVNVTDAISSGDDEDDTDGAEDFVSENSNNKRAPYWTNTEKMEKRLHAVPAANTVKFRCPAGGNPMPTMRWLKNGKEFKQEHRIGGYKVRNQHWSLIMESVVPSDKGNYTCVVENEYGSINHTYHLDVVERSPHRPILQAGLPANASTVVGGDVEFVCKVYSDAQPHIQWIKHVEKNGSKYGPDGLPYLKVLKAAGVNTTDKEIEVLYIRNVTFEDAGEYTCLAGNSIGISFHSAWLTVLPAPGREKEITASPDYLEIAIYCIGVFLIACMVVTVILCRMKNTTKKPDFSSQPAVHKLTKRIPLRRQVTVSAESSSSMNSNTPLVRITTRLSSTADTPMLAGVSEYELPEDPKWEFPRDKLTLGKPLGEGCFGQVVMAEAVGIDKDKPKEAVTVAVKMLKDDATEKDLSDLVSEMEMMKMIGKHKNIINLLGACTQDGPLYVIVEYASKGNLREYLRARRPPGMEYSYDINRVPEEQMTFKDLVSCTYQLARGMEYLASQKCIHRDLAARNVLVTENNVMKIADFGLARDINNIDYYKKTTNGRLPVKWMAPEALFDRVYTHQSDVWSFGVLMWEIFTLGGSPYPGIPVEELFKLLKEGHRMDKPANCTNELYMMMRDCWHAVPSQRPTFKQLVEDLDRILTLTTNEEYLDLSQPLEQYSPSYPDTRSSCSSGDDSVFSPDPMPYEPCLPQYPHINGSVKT

O=C(Nc1nc(NCc2ccc(Cl)cc2)c2nc[nH]c2n1)c1ccccc1
inhibition [1]: Active | inhibition [2]: 7.3% | Activity (MDA-MB-231 [3]): Toxic | Activity (MDA-MB-231 [4]): Dose-dependent effect | Activity (MDA-MB-231 [5]): 30% | inhibition in vivo at 30 mg/kg (MDA-MB-231 [6]): 47.8% | viability at 10 µM (MDA-MB-231 [7]): 81.3% | inhibition [8]: 18.3% | Activity (MDA-MB-231 [9]): Active
